Assay results: EP0386611A2, “Amino acid derivatives” (F. HOFFMANN-LA ROCHE AG, priority 1989, dated 1990)
Like-named read-outs stand apart in the source and are kept apart here.

Legend:
HIV protease = target: T1, HIV protease (Human immunodeficiency virus type 1 group M subtype B, UniProt P04585); assay: In vitro inhibition of HIV protease (spectrophotometric assay of N-terminal proline from cleavage of substrate S¹ or S²); type: biochemical; conditions: citrate buffer pH 5.5, 37°C
T1 construct: HIV protease was expressed in E. coli and partially purified from soluble extracts; made in house; host or cells: E. coli
Procedure: HIV protease was expressed in E. coli and partially purified from soluble extracts of the bacterium by ammonium sulphate fractionation (0-30%). Protease activity was assayed using as the substrate the protected hexapeptide succinyl-Ser-Leu-Asn-Tyr-Pro-Ile isobutylamide (S¹) or the protected heptapeptide succinyl-Val-Ser-Gln-Asn-Phe-Pro-Ile isobutylamide (S²). Cleavage of the substrate was quantified by measuring the production of H-Pro-Ile isobutylamide by the spectrophotometric assay of N-terminal proline.
1.25 mM of substrate S¹ or 0.68 mM of substrate S² were dissolved in 125 mM of citrate buffer (pH 5.5) containing 0.125 mg/ml of Tween 20. 10 µl of a solution of various concentrations of the test compound (dissolved in methanol or dimethyl sulphoxide and diluted with water containing 0.1% Tween 20) and 10 µl of protease were added to 80 µl of the respective buffered substrate. Digestion was carried out at 37°C for a fixed period of time and was terminated by the addition of 1 ml of colour reagent [30 µg/ml of isatin and 1.5 mg/ml of 2-(4-chlorobenzoyl)benzoic acid in 10% acetone in ethanol (vol./vol.)]. The solution was heated in a boiling water bath for 15 minutes and then the pigmented residues were re-dissolved in 1 ml of 1% pyrogallol in 33% water in acetone (wt./vol./vol.). The optical density of the solution was measured spectrophotometrically at 599 nm. The formation of H-Pro-Ile isobutylamide in the presence of the test compound was compared with controls and the concentration of test compound required to give 50% inhibition (IC₅₀) was determined by means of a graph plotted from the various concentrations of test compound used.
In the above test the determination of the IC₅₀ values for potent inhibitors is limited by mutual depletion. In this respect, substrate S² is more sensitive than substrate S¹ and this allows reduced protease concentrations to be used, which results in lower IC₅₀ values. This will be seen from the results presented in the Table hereinafter where in turn the 2nd run with substrate S² was carried out using a lower protease concentration than in the 1st run which results again in lower IC₅₀ values.

HTLV-III (strain RF) = assay: In vitro antiviral activity: HTLV-III (strain RF) in C8166 cells, p24 antigen capture assay; type: cell-based; conditions: Human immunodeficiency virus 1; concentration that produces 50% protection; C8166 cells infected with ten times the TCD₅₀, 72 hours at 37°C, viral protein 24 antigen capture; read-out: IC₅₀ Activity against HIV
Procedure: This assay uses HTLV-III (strain RF) grown in C8166 cells (a human CD4⁺ T lymphoblastoid line) using RPM1 1640 medium with bicarbonate buffer, antibiotics and 10% foetal bovine serum.
A suspension of cells is infected with ten times the TCD₅₀ of virus and adsorption allowed to proceed for 90 minutes at 37°C. The cells are washed three times with medium. The test is carried out in 6 ml tissue culture tubes, each tube containing 2 x 10⁵ infected cells in 1.5 ml of medium. Test compounds are dissolved in either aqueous medium or dimethyl sulphoxide, according to solubility, and a 15 µl solution of the compound added. The cultures are incubated at 37°C for 72 hours in a humidified atmosphere containing 5% carbon dioxide in air. The cultures are then centrifuged and an aliquot of the supernatant solubilized with Nonidet P40 and subjected to an antigen capture assay which uses a primary antiserum with particular reactivity against the viral protein 24 and a horseradish peroxidase detection system. Colour generation is measured spectrophotometrically and plotted against the concentration of test compound. The concentration that produces 50% protection is determined (IC₅₀).

[1] = substrate S² (succinyl-Val-Ser-Gln-Asn-Phe-Pro-Ile isobutylamide), 0.68 mM, 1st run, read-out: IC₅₀ Inhibition of HIV protease S² 1st run
[2] = substrate S², 0.68 mM, 2nd run, lower protease concentration than in the 1st run, read-out: IC₅₀ Inhibition of HIV protease S² 2nd run
[3] = substrate S¹ (succinyl-Ser-Leu-Asn-Tyr-Pro-Ile isobutylamide), 1.25 mM, read-out: IC₅₀ Inhibition of HIV protease S¹

Structure (SMILES)	IC50 (HIV protease; [1])	IC50 (HIV protease; [2])	IC50 (HIV protease; [3])	IC50 (HTLV-III (strain RF))
CC[C@H](C)[C@H](NC(=O)[C@@H](C[C@H](O)[C@H](CC1CCCCC1)NC(=O)OC(C)(C)C)C(C)C)C(=O)NCCc1ccccc1 [Compound A, N²-[5(S)-(tert.Butoxyformamido)-6-cyclohexyl-4(S)-hydroxy-2(S)-isopropylhexanoyl]-N¹-phenethyl-L-isoleucinamide]	4.5 nM	0.62 nM	12 nM	100 nM
CC[C@H](C)[C@H](NC(=O)[C@@H](C[C@H](O)[C@H](CC1CCCCC1)NC(=O)OC(C)(C)C)C(C)C)C(=O)N[C@@H](Cc1ccccc1)C(=O)OC [Compound B, N-[N-[5(S)-(tert.Butoxyformamido)-6-cyclohexyl-4(S)-hydroxy-2(S)-isopropylhexanoyl]-L-isoleucyl]-L-phenylalanine methyl ester]	3.4 nM	0.48 nM	20 nM	–
CC[C@H](C)[C@H](NC(=O)[C@@H](C[C@H](O)[C@H](CC1CCCCC1)NC(=O)OC(C)(C)C)C(C)C)C(=O)NCc1ccccc1 [Compound C, N²-[5(S)-(tert.Butoxyformamido)-6-cyclohexyl-4(S)-hydroxy-2(S)-isopropylhexanoyl]-N¹-benzyl-L-isoleucinamide]	3.3 nM	–	15 nM	7 nM
CC[C@H](C)[C@H](NC(=O)[C@@H](C[C@H](O)[C@H](CC1CCCCC1)NC(=O)OC(C)(C)C)C(C)C)C(=O)NCCc1ccccn1 [Compound D, N²-[5(S)-(tert.Butoxyformamido)-6-cyclohexyl-4(S)-hydroxy-2(S)-isopropylhexanoyl]-N¹-[2-(2-pyridyl)ethyl]-L-isoleucinamide]	2.5 nM	0.52 nM	–	20 nM
CC[C@H](C)[C@H](NC(=O)[C@@H](C[C@H](O)[C@H](CC1CCCCC1)NC(=O)OC(C)(C)C)C(C)C)C(=O)NC1Cc2ccccc2C1 [Compound E, N²-[5(S)-(tert.Butoxyformamido)-6-cyclohexyl-4(S)-hydroxy-2(S)-isopropylhexanoyl]-N¹-(2-indanyl)-L-isoleucinamide]	4.3 nM	2.2 nM	–	70 nM
CC[C@H](C)[C@H](NC(=O)[C@@H](C[C@H](O)[C@H](CC1CCCCC1)NC(=O)OC(C)(C)C)C(C)C)C(=O)NCCN1CCOCC1 [Compound F, N²-[5(S)-(tert.Butoxyformamido)-6-cyclohexyl-4(S)-hydroxy-2(S)-isopropylhexanoyl]-N¹-(2-morpholinoethyl)-L-isoleucinamide]	4 nM	1.9 nM	–	100 nM
CC[C@H](C)[C@H](NC(=O)[C@@H](C[C@H](O)[C@H](Cc1ccccc1)NC(=O)OC(C)(C)C)C(C)C)C(=O)NCCc1ccccc1 [Compound G, N²-[5(S)-(tert.Butoxyformamido)-4(S)-hydroxy-2(S)-isopropyl-6-phenylhexanoyl]-N¹-phenethyl-L-isoleucinamide]	4.1 nM	0.89 nM	32 nM	100 nM
CC[C@H](C)[C@H](NC(=O)[C@@H](C[C@H](O)[C@H](CC1CCCCC1)NC(=O)OCc1ccccc1)C(C)C)C(=O)NCCc1ccccc1 [Compound H, N²-[5(S)-Benzyloxyformamido-6-cyclohexyl-4(S)-hydroxy-2(S)-isopropylhexanoyl]-N¹-phenethyl-L-isoleucinamide]	3 nM	0.91 nM	22 nM	60 nM
CC[C@H](C)[C@H](NC(=O)[C@@H](C[C@H](O)[C@H](CC1CCCCC1)NC(=O)[C@H](CC(N)=O)NC(=O)OCc1ccccc1)C(C)C)C(=O)NCCc1ccccc1 [Compound I, N²-[5(S)-[[N-(Benzyloxycarbonyl)-L-asparaginyl]amino]-6-cyclohexyl-4(S)-hydroxy-2(S)-isopropylhexanoyl]-N¹-phenethyl-L-isoleucinamide]	2.5 nM	0.39 nM	80 nM	9 nM
CC[C@H](C)[C@H](NC(=O)[C@@H](C[C@H](O)[C@H](CC1CCCCC1)NC(=O)CC(C)(C)C)C(C)C)C(=O)NCCc1ccccc1 [Compound J, N²-[5(S)-(tert.Butylacetamido)-6-cyclohexyl-4(S)-hydroxy-2(S)-isopropylhexanoyl]-N¹-phenethyl-L-isoleucinamide]	7.7 nM	–	–	100 nM
CC[C@H](C)[C@H](NC(=O)[C@@H](C[C@H](O)[C@H](CC1CCCCC1)NC(=O)[C@H](CC#N)NC(=O)OCc1ccccc1)C(C)C)C(=O)NCCc1ccccc1 [Compound K, N²-[5(S)-[[N-(Benzyloxycarbonyl)-β-cyano-L-alanyl]amino]-6-cyclohexyl-4(S)-hydroxy-2(S)-isopropylhexanoyl]-N¹-phenethyl-L-isoleucinamide]	–	1.6 nM	–	4 nM
CC[C@H](C)[C@H](NC(=O)[C@@H](C[C@H](O)[C@H](CC1CCCCC1)NC(=O)OC(C)(C)C)C(C)C)C(=O)NCCN1CCN(C(=O)OCc2ccccc2)CC1 [Compound L, N¹-[2-[4-(Benzyloxycarbonyl)-1-piperazinyl]ethyl]-N²-[5(S)-(tert.butoxyformamido)-6-cyclohexyl-4(S)-hydroxy-2(S)-isopropylhexanoyl]-L-isoleucineamide]	–	2.7 nM	–	5 nM
CC[C@H](C)[C@H](NC(=O)[C@@H](C[C@H](O)[C@H](CC1CCCCC1)NC(=O)OC(C)(C)C)C(C)C)C(=O)NCCc1ccc(O)cc1 [Compound M, N²-[5(S)-(tert.Butoxyformamido)-6-cyclohexyl-4(S)-hydroxy-2(S)-isopropylhexanoyl]-N¹-[2-(4-hydroxyphenyl)ethyl]-L-isoleucinamide]	–	3.7 nM	–	10 nM
CC[C@H](C)[C@H](NC(=O)[C@H](C(C)C)[C@@H](O)[C@H](O)[C@H](CC1CCCCC1)NC(=O)OC(C)(C)C)C(=O)NCCN1CCN(C(=O)OCc2ccccc2)CC1 [Compound N, N¹-[2-[4-(Benzyloxycarbonyl)-1-piperazinyl]ethyl]-N²-[5(S)-(tert.butoxyformamido)-6-cyclohexyl-3(R),4(R)-dihydroxy-2(R)-isopropylhexanoyl]-L-isoleucinamide]	–	4.1 nM	–	< 100 nM
